Results taken from patent US6525211B1, “Herbicidal sulphonylamino(thio)carbonyl compounds” (Bayer Aktiengesellschaft, priority 1995, dated 2003).

Experiments:
[1] = system: broad-leaved weeds; test: Pre-emergence test (Example A); format: in vivo; conditions: soil watered with preparation 24 hours after sowing, rated after three weeks vs untreated control (0%=no action, 100%=total destruction)
Procedure: Solvent: 5 parts by weight of acetone
Emulsifier: 1 part by weight of alkylaryl polyglycol ether
(§1) To produce a suitable preparation of active compound, 1 part by weight of active compound is mixed with the stated amount of solvent, the stated amount of emulsifier is added and the concentrate is diluted with water to the desired concentration.
Seeds of the test plants are sown in normal soil, and, after 24 hours, the soil is watered with the preparation of the active compound. It is expedient to keep constant the amount of water per unit area. The concentration of the active compound in the preparation is of no importance, only the amount of active compound applied per unit area being decisive.
After three weeks, the degree of damage to the plants is rated in % damage in comparison to the development of the untreated control. The figures denote:
(§2) 0%=no action (like untreated control) 100%=total destruction

[2] = system: broad-leaved weeds; test: Post-emergence test (Example B); format: in vivo; conditions: test plants of 5-15 cm height sprayed, 2,000 l water/ha, rated after three weeks vs untreated control (0%=no action, 100%=total destruction)
Procedure: as §1
Test plants which have a height of 5-15 cm are sprayed with the preparation of the active compound in such a way as to apply the particular amounts of active compound desired per unit area. The concentration of the spray liquor is chosen so that the particular amounts of active compound desired are applied in 2,000 1 of water/ha. After three weeks, the degree of damage to the plants is rated in % damage in comparison to the development of the untreated control.
as §2

Row | SMILES | action against broad-leaved weeds (degree of damage to the plants) [1] | action against broad-leaved weeds (degree of damage to the plants) [2] | melting point [°C]
1 | CCOc1nn(C(=O)NS(=O)(=O)c2c(C)cccc2OC(C)C)c(=O)n1C [Example 1, 5-ethoxy-4-methyl-2-(2-isopropoxy-6-methyl-phenylsulphonyl-aminocarbonyl)-2,4-dihydro-3H-1,2,4-triazol-3-one] | very strong action | very strong action | –
2 | CCOc1cccc(C)c1S(=O)(=O)NC(=O)n1nc(OCC)n(C)c1=O [Example 9, 5-ethoxy-4-methyl-2-(2-ethoxy-6-methyl-phenylsulphonylaminocarbonyl)-2,4-dihydro-3H-1,2,4-triazol-3-one] | – | – | 162
